Tests used:
[1] = tested on: antibodies in sera from SARS patients (sera 1a, 1b, 2, 6, 37, 62, London, SARS-yellow, SARS-green); format: binding, human; parameters: Binding of serum 6 to linear peptides of protein X1 of SARS-CoV Urbani / Binding of serum 37 to linear peptides of protein X1 of SARS-CoV Urbani / Binding of serum 6 to looped/cyclic peptide (PEPSCAN-ELISA) / Binding of serum 37 to looped/cyclic peptide (PEPSCAN-ELISA) / Binding of serum 37 to looped/cyclic peptides of protein X1 of SARS-CoV Urbani / Binding of serum 6 to linear peptides of protein X2 / Binding of serum 37 to linear peptides of protein X2 / Binding of serum 37 to looped/cyclic peptides of protein X2 of SARS-CoV Urbani / Binding of serum 6 to linear peptides of protein M of SARS-CoV Urbani / Binding of serum 37 to linear peptides of protein M of SARS-CoV Urbani / Binding of serum 6 to looped/cyclic peptides of protein M of SARS-CoV Urbani / Binding of serum 37 to looped/cyclic peptides of protein M of SARS-CoV Urbani / Binding of serum 6 to linear peptides of protein X3 of SARS-CoV Urbani / Binding of serum 37 to linear peptides of protein X3 of SARS-CoV Urbani / Binding of serum 37 to looped/cyclic peptides of protein X3 of SARS-CoV Urbani / Binding of serum 6 to linear peptides of protein X4 of SARS-CoV Urbani / Binding of serum 37 to linear peptides of protein X4 of SARS-CoV Urbani / Binding of serum 37 to looped/cyclic peptides of protein X4 of SARS-CoV Urbani / Binding of serum 6 to linear peptides of protein X5 of SARS-CoV Urbani / Binding of serum 37 to linear peptides of protein X5 of SARS-CoV Urbani / Binding of serum 37 to looped/cyclic peptides of protein X5 of SARS-CoV Urbani / Binding of serum 6 to linear peptides of protein N of SARS-CoV Urbani / Binding of serum 37 to linear peptides of protein N of SARS-CoV Urbani / Binding of serum 6 to linear peptide (PEPSCAN-ELISA) / Binding of serum 1a to looped/cyclic peptides of protein N of SARS-CoV Urbani / Binding of serum 1b to looped/cyclic peptides of protein N of SARS-CoV Urbani / Binding of serum 2 to looped/cyclic peptides of protein N of SARS-CoV Urbani / Binding of serum 6 to looped/cyclic peptides of protein N of SARS-CoV Urbani / Binding of serum 37 to looped/cyclic peptides of protein N of SARS-CoV Urbani / Binding of serum 62 to looped/cyclic peptides of protein N of SARS-CoV Urbani / Binding of serum London to looped/cyclic peptides of protein N of SARS-CoV Urbani / Binding of serum SARS-green to looped/cyclic peptides of protein N of SARS-CoV Urbani: unit not given here
[2] = tested on: control sera (pooled serum of ten healthy LUMC hospital workers; commercial negative donor pooled serum from the Dutch bloodbank); format: binding, human; parameters: Binding of Control serum LUMC to linear peptides / Binding of Control serum Blood-bank to linear peptides / Binding of Control serum LUMC to looped peptides / Binding of Control Serum Blood-Bank to Looped peptides / Binding of Control serum LUMC to linear peptides of the protein M of SARS-CoV Urbani / Binding of Control serum Blood-bank to linear peptides of the protein M of SARS-CoV Urbani / Binding of Control serum LUMC to looped peptides of the protein M of SARS-CoV Urbani / Binding of Control Serum Blood-Bank to Looped peptides of the protein M of SARS-CoV Urbani: unit not given here
[3] = tested on: rabbit serum obtained by immunizing a rabbit with the SARS-CoV strain Frankfurt 1; format: binding; parameters: Binding of a rabbit serum to linear peptides / Binding of a rabbit serum to looped peptides / Rabbit serum linear peptides / Rabbit serum looped peptides / Binding of a rabbit serum to linear peptides of protein N of SARS-CoV Urbani (Rabbit serum linear peptides) / Binding of a rabbit serum to looped/cyclic peptides of protein N of SARS-CoV Urbani (Rabbit serum looped peptides): unit not given here
[4] = tested on: recombinant human anti-SARS-CoV antibody 03-018; format: binding; parameters: Binding of antibody 03-018 to linear peptides of the N protein of SARS-CoV Urbani / Binding of antibody 03-018 to looped/cyclic peptides of the N protein of SARS-CoV Urbani: unit not given here

Sequence	Binding of serum 1a to looped/cyclic peptides of protein N of SARS-CoV Urbani [1]	Binding of serum 1b to looped/cyclic peptides of protein N of SARS-CoV Urbani [1]	Binding of serum 2 to looped/cyclic peptides of protein N of SARS-CoV Urbani [1]	Binding of serum 6 to looped/cyclic peptides of protein N of SARS-CoV Urbani [1]	Binding of serum 37 to looped/cyclic peptides of protein N of SARS-CoV Urbani [1]	Binding of serum 62 to looped/cyclic peptides of protein N of SARS-CoV Urbani [1]	Binding of serum London to looped/cyclic peptides of protein N of SARS-CoV Urbani [1]	Binding of serum SARS-green to looped/cyclic peptides of protein N of SARS-CoV Urbani [1]	Binding of serum SARS-yellow to looped/cyclic peptides of protein N of SARS-CoV Urbani [1]	Binding of a rabbit serum to linear peptides of protein N of SARS-CoV Urbani (Rabbit serum linear peptides) [3]	Binding of a rabbit serum to looped/cyclic peptides of protein N of SARS-CoV Urbani (Rabbit serum looped peptides) [3]	Binding of antibody 03-018 to linear peptides of the N protein of SARS-CoV Urbani [4]	Binding of antibody 03-018 to looped/cyclic peptides of the N protein of SARS-CoV Urbani [4]	Binding of Control Serum Blood-Bank to Looped peptides [2]	Binding of Control serum Blood-bank to linear peptides [2]	Binding of Control serum LUMC to linear peptides [2]	Binding of Control serum LUMC to looped peptides [2]	Binding of serum 1a to linear peptide (PEPSCAN-ELISA) [1]	Binding of serum 1b to linear peptide (PEPSCAN-ELISA) [1]	Binding of serum 2 to linear peptide (PEPSCAN-ELISA) [1]	further results
EPKKDKKKKTDEAQP	0.2	0.1	2.1	0.1	0.4	0.3	0.3	0.0	0.1	0.2	0.3	0.1	0.2								Binding of serum 1a to linear peptides of protein N of SARS-CoV Urbani [1]: 0.2; Binding of serum 1b to linear peptides of protein N of SARS-CoV Urbani [1]: 0.1; Binding of serum 2 to linear peptides of protein N of SARS-CoV Urbani [1]: 2.4; Binding of serum 6 to linear peptides of protein N of SARS-CoV Urbani [1]: 0.2; Binding of serum 37 to linear peptides of protein N of SARS-CoV Urbani [1]: 0.7; Binding of serum 62 to linear peptides of protein N of SARS-CoV Urbani [1]: 0.7; Binding of serum London to linear peptides of protein N of SARS-CoV Urbani [1]: 0.7; Binding of serum SARS-green to linear peptides of protein N of SARS-CoV Urbani [1]: 0.5; Binding of serum SARS-yellow to linear peptides of protein N of SARS-CoV Urbani [1]: 0.6; Control Serum Blood-Bank Looped peptides [2]: 0.5; Control serum Blood-bank linear peptides [2]: 0.8; Control serum LUMC linear peptides [2]: 0.8; Control serum LUMC looped peptides [2]: 0.3
EQTQGNFGDQDLIRQ	0.3	0.1	0.4	0.3	0.2	0.3	0.3	1.3	0.3	0.2	0.0	0.1	0.0	0.6	1.0	1.0	0.6				Recognition of the peptide by sera of SARS-CoV infected individuals, and form (linear, looped/cyclic) in which it is recognized [1]: recognized in linear form
ESKVSGKGQQQQGQT	0.6	0.4	0.8	0.4	0.7	0.7	0.8	0.7	0.9	0.1	0.6	0.1	0.2	1.1	0.7	0.8	0.9	0.2	0.1	0.2	Binding of serum 6 to linear peptide (PEPSCAN-ELISA) [1]: 0.2; Binding of serum 37 to linear peptide (PEPSCAN-ELISA) [1]: 0.6; Binding of serum 62 to linear peptide (PEPSCAN-ELISA) [1]: 0.7; Binding of serum London to linear peptide (PEPSCAN-ELISA) [1]: 0.5; Binding of serum SARS-green to linear peptide (PEPSCAN-ELISA) [1]: 0.4; Binding of serum SARS-yellow to linear peptide (PEPSCAN-ELISA) [1]: 0.7
ETALALLLLDRLNQL	0.4	0.3	0.4	0.2	0.7	0.6	0.5	0.4	0.5	0.4	0.6	0.1	0.3	0.8	0.5	0.5	0.7	0.2	0.1	0.1	Binding of serum 6 to linear peptide (PEPSCAN-ELISA) [1]: 0.1; Binding of serum 37 to linear peptide (PEPSCAN-ELISA) [1]: 0.6; Binding of serum 62 to linear peptide (PEPSCAN-ELISA) [1]: 0.4; Binding of serum London to linear peptide (PEPSCAN-ELISA) [1]: 0.5; Binding of serum SARS-green to linear peptide (PEPSCAN-ELISA) [1]: 0.3; Binding of serum SARS-yellow to linear peptide (PEPSCAN-ELISA) [1]: 0.5
